Consider one molecule from patent US12264185B2, “Stabilized BCL9 peptides for treatment of aberrant Wnt signaling” (WntRx Pharmaceuticals Inc., priority 2015, dated 2025).

Data set [1] deals with B16F10 cells. As to the kind of experiment: B16F10 syngeneic model in C57BL/6 mice. It counts as in vivo. The note with it: 12 days. The procedure: C57BL/6 mice were inoculated with B16F10 cells. Female C57BL/6 mice aged 4-5 weeks were inoculated with B16F10 cells (2×10^5 cells in 0.05 ml per mouse) in the right flank. When the average tumor size of the mice reached 100 mm^3, the mice were divided into two groups (N=6). […] The treatment was intraperitoneally administered daily for 14 consecutive days.
The treatment was intraperitoneally administered daily for 12 consecutive days. At the end of the treatment, the mice were sacrificed and tumor and blood samples were collected in anticoagulation tubes. Single cell separation was performed for each sample and then stained for FACS analysis. For cell surface staining, CD45-PerCP-Cy5, CD4-FITC, CD8-PE-Cy7, and CD25-PE were used. The tumor samples were then stained with either an anti-CD4 antibody or an anti-CD8 antibody to assess the presence of T cells in the tumor samples. The tumor samples were also stained with an anti-CD194 antibody and anti-CD196 antibody to assess the presence of T helper 17 cells in the tumor samples.
The process of constructing WX-039 is described in Example 10. C57BL/6 mice were inoculated with B16F10 cells. […] The treatment was intraperitoneally administered daily for 12 consecutive days. At the end of the treatment, the mice were sacrificed and tumor and blood samples were collected in anticoagulation tubes. Tumor cells collected from the experiment were stained as described above and also with anti-CD205 antibody to assess whether WX compounds are capable of modulating dendritic cells.
The ability of WX-039 to suppress tumor growth was assessed in the animal model described in Example 5.4. Briefly, C57BL/6 mice were inoculated with B16 cells. Female C57BL/6 mice aged 5 weeks were inoculated with B16F10 cells (2×10^5 cells in 0.05 ml per mouse) in the right flank. When the average tumor size of the mice reached 100 mm^3, the mice were divided into two groups (N=3). The first group was administered 60 mg/kg WX-039 while the second group was treated with a vehicle. The treatment was intraperitoneally administered daily for 12 consecutive days.

The nature of data set [2]: Pharmacokinetics in female balb/c nude mice. The class given is in vivo. As to conditions: mouse, plasma, sc, 10 mg/kg subcutaneously. The procedure:
The pharmacokinetic profiles of the four additional polypeptides constructed in Example 10 were assessed following the procedures described in Example 5.1. WX-029 and WX-036 were administered 1 mg/kg intravenously to female balb/c nude mice. Blood samples were collected at 15 min, 1, 2, and 4 hours post administration. FIG. 39A and FIG. 39B summarize the plasma concentration and the pharmacokinetic profiles calculated for WX-029. FIG. 40A and FIG. 40B summarize the plasma concentration and the pharmacokinetic profiles calculated for WX-036.
Similarly, WX-039 and WX-040 were also tested in female balb/c nude mice and assessed for their pharmacokinetic profiles. WX-039 was administered at 5 mg/kg intravenously, 5 mg/kg intraperitoneally, or 10 mg/kg subcutaneously. WX-040 was administered at 30 mg/kg intravenously or 30 mg/kg intraperitoneally. Blood samples were collected at 15 min, 1, 2, 4, 8, 24, 36, 48, and 72 hours post administration. FIG. 41A and FIG. 41B summarize the plasma concentration and the pharmacokinetic profiles calculated for WX-039. FIG. 42A and FIG. 42B summarize the plasma concentration and the pharmacokinetic profiles calculated for WX-040.

Setting [3] is: 20 mg/kg WX-024 or 60 mg/kg WX-039 i.p. daily.

Bridge positions count the residues as written; N and C are the ends. Square brackets hold non-standard residues; d marks the D form. Peptide text beside a SMILES is read from it. 2Nal = N[C@@H](Cc1ccc2ccccc2c1)C(=O)O; R5 = C=CCCC[C@@](C)(N)C(=O)O; S5 = C=CCCC[C@](C)(N)C(=O)O; βAla = NCCC(=O)O

A word on the half-life: it is the time in which the quantity being followed falls by half. A high value points to slow decline. `CC[C@H](C)[C@@H]1NC(=O)[C@@](C)(NC(=O)[C@H](CCCNC(=N)N)NC(=O)[C@H](CC(C)C)NC(=O)[C@]2(C)CCCC=CCCC[C@@](C)(NC(=O)[C@H](CCCNC(=N)N)NC(C)=O)C(=O)N[C@@H](CC(C)C)C(=O)N[C@@H](CCC(N)=O)C(=O)N2)CCCC=CCCC[C@@](C)(C(=O)N[C@@H](CC(C)C)C(=O)N[C@@H](Cc2ccc3ccccc3c2)C(=O)NCCC(=O)NCCC(N)=O)NC(=O)[C@H](CCCNC(=N)N)NC(=O)[C@H](CCC(N)=O)NC1=O` [WX-039, RXaa1LQXaa2LRXaa3IQRXaa4L] (Ac-R[R5]LQ[S5]LR[S5]IQR[S5]L[2Nal][βAla][βAla]-NH2; staple 2-5, 8-12): in data set [1] (setting [3]), the “T helper 17 cells in tumor” value was “increased” and the “dendritic cells (CD205+) in tumor” value is on record as “capable of suppressing dendritic cells present in tumor”. In data set [1] (60 mg/kg i.p. daily), the body weight change result is listed as “no substantial body weight change” and the “tumor growth compared to vehicle” value is recorded as “reduced tumor growth”. The molecule also gave a half-life in data set [2] of about 52 h.
